These compounds were tested against T1, TANK-2 enzyme (Homo sapiens, UniProt Q9H2K2) (assay: In vitro Scintillation Proximity Assay (SPA) for TANK-2 inhibitory activity). Conditions: read-out: in vitro SPA assay TANK-2 pIC50 (converted).
T1 construct: made in house
T1 sequence (Q9H2K2 1-1166): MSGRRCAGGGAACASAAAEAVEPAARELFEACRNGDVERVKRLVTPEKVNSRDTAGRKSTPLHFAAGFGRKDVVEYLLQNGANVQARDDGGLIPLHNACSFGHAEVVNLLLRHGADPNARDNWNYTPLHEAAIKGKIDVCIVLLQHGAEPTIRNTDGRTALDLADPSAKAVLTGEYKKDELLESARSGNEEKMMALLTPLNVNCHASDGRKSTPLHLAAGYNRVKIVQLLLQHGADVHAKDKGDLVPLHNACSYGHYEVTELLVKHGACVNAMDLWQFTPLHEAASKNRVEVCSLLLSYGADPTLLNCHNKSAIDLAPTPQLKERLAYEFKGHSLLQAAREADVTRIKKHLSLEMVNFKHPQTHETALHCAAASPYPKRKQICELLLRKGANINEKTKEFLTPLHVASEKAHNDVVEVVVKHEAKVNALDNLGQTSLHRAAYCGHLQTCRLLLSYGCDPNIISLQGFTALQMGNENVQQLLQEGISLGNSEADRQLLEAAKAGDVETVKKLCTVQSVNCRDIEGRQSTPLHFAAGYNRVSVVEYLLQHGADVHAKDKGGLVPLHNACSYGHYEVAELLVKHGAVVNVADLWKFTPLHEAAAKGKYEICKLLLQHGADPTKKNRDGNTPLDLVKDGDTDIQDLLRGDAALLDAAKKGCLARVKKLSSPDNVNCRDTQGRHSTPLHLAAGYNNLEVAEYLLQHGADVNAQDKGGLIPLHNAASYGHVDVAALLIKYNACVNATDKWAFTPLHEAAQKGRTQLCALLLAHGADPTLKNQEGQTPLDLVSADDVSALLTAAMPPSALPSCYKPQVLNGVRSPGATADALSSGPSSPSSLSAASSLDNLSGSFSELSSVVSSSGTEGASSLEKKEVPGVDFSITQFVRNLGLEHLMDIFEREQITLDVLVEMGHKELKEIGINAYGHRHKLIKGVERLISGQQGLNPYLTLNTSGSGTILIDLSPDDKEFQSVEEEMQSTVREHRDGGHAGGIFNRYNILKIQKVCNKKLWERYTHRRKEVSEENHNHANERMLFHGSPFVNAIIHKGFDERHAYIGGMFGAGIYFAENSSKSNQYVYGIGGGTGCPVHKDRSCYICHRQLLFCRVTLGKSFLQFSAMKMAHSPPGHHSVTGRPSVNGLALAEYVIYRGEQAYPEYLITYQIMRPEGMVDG
Format: biochemical
How it was run: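 TANK-2 (8 μg/ml final) auto-poly(ADP-ribosyl)ation with [3H]-NAD+/NAD donor was run in Ni flash plates in Tris/HCl pH 7.4 buffer with DTT and MgCl2, 120 min at room temperature, then stopped with excess NAD and scintillation-counted. Blank-corrected cpm was expressed as % of enzyme control, and IC50 was linearly interpolated and reported as pIC50.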

Row | IC50 [nM] | SMILES
1 | 50.1 | CCc1cc2ccc(C(C)(C#N)Cc3cccc(C#N)n3)cc2[nH]c1=O (single isomer, unassigned) [Compound 206]
2 | 31.6 | CCc1cc2ccc(C(C)(C#N)Cc3cccc(C#N)n3)cc2[nH]c1=O (single isomer, unassigned) [Compound 207]
3 | 501 | CCc1cc2ccc([C@@](C)(C#N)Cc3cccc(N(C)C)c3)cc2[nH]c1=O (single isomer, unassigned) [Compound 258]
4 | 200 | CCc1cc2ccc([C@](C)(C#N)Cc3cccc(N(C)C)c3)cc2[nH]c1=O (single isomer, unassigned) [Compound 259]
5 | 2000 | CCC[C@@](C#N)(Cc1ccccc1)c1ccc2cc(CC)c(=O)[nH]c2c1 (single isomer, unassigned) [Compound 263]
6 | 2510 | CCC[C@](C#N)(Cc1ccccc1)c1ccc2cc(CC)c(=O)[nH]c2c1 (single isomer, unassigned) [Compound 264]
7 | 79.4 | CCc1cc2ccc([C@@](C)(C#N)Cc3cccc(C#N)c3)cc2[nH]c1=O (single isomer, unassigned) [Compound 268]
8 | 158 | CCc1cc2ccc([C@](C)(C#N)Cc3cccc(C#N)c3)cc2[nH]c1=O (single isomer, unassigned) [Compound 269]
9 | 501 | CCc1cc2ccc([C@](C)(C#N)C[C@@H]3Cc4cc(C)ccc4O3)cc2[nH]c1=O (single isomer, unassigned) [Compound 400]
10 | 398 | C#Cc1cccc(C[C@](C)(C#N)c2ccc3cc(CC)c(=O)[nH]c3c2)c1 [Compound 2]
11 | 501 | C#Cc1cccc(C[C@@](C)(C#N)c2ccc3cc(CC)c(=O)[nH]c3c2)c1 [Compound 3]
12 | 79.4 | CCc1cc2ccc(C(C#N)(CC)Cc3ccccc3)cc2[nH]c1=O (centres unmarked) [Compound 32]
13 | 158 | COc1ccccc1-c1nc(CC(C)(C#N)c2ccc3cc(C)c(=O)[nH]c3c2)no1 (centres unmarked) [Compound 33]
14 | 31.6 | Cc1cc2ccc(C(C)(C#N)Cc3cccc(C#N)c3)cc2[nH]c1=O (centres unmarked) [Compound 34]
15 | 316 | Cc1cc2ccc([C@@](C)(C#N)Cc3cccc(C#N)c3)cc2[nH]c1=O [Compound 35]
16 | 200 | Cc1cc2ccc([C@](C)(C#N)Cc3cccc(C#N)c3)cc2[nH]c1=O [Compound 36]
17 | 79.4 | Cc1cc2ccc(C(C)(C#N)Cc3cccc(Cl)c3)cc2[nH]c1=O (centres unmarked) [Compound 37]
18 | 501 | CC(C)c1cc2ccc(C(C)(C#N)Cc3ccccc3)cc2[nH]c1=O (centres unmarked) [Compound 38]
19 | 316 | CC(=O)c1cc2ccc(C(C)(C#N)Cc3ccccc3)cc2[nH]c1=O (centres unmarked) [Compound 39]
20 | 1580 | CCc1cc2ccc(C(C)(C#N)Cc3cccc(OC[C@@H](O)CO)c3)cc2[nH]c1=O (some centres unmarked) [Compound 56]
21 | 398 | CCc1cc2ccc(C(C)(C#N)Cc3cccc(CCC#N)c3)cc2[nH]c1=O (centres unmarked) [Compound 169]
22 | 794 | CCc1cc2ccc(C(C)(C#N)Cc3cccc(CNS(C)(=O)=O)c3)cc2[nH]c1=O (centres unmarked) [Compound 170]

Row | IC50 [nM] | SMILES
23 | 794 | C=Cc1cccc(CC(C)(C#N)c2ccc3cc(CC)c(=O)[nH]c3c2)c1 (centres unmarked) [Compound 172]
24 | 100 | CCc1cc2cc(F)c(C(C)(C#N)Cc3cccc(C#N)c3)cc2[nH]c1=O (centres unmarked) [Compound 175]
25 | 158 | CCc1c(C)c2ccc(C(C)(C#N)Cc3cccc(C#N)c3)cc2[nH]c1=O (centres unmarked) [Compound 181]
26 | 31.6 | CCc1cc2cc(OCCOC)c(C(C)(C#N)Cc3cccc(C#N)c3)cc2[nH]c1=O (centres unmarked) [Compound 182]
27 | 794 | CCc1cc2ccc(C(C)(C#N)Cc3cccc(C#CCO)c3)cc2[nH]c1=O (centres unmarked) [Compound 183]
28 | 316 | CCc1cc2ccc(C(F)(C#N)Cc3ccccc3)cc2[nH]c1=O (centres unmarked) [Compound 187]
29 | 2510 | CCc1cc2ccc(C(C)(C#N)CN(C)Cc3ccccc3)cc2[nH]c1=O (centres unmarked) [Compound 189]
30 | 794 | CCc1cc2ccc(C(C)(C#N)C(C)c3ccccc3)cc2[nH]c1=O (centres unmarked) [Compound 198]
31 | 1260 | CCc1cc2ccc([C@](C)(C#N)[C@@H](C)c3ccccc3)cc2[nH]c1=O [Compound 199]
32 | 1260 | CCc1cc2ccc([C@](C)(C#N)[C@H](C)c3ccccc3)cc2[nH]c1=O [Compound 200]
33 | 398 | C#Cc1cccc(CC(C)(C#N)c2ccc3cc(CC)c(=O)[nH]c3c2)n1 (centres unmarked) [Compound 211]
34 | 126 | CCc1cc2ccc(C(C)(C#N)Cc3cccc(N(C)C)n3)cc2[nH]c1=O (centres unmarked) [Compound 213]
35 | 50.1 | CCc1cc2ccc(C(C)(C#N)Cc3cccc(I)n3)cc2[nH]c1=O (centres unmarked) [Compound 214]
36 | 2000 | CCOC(=O)c1cccc(CC(C)(C#N)c2ccc3cc(CC)c(=O)[nH]c3c2)n1 (centres unmarked) [Compound 215]
37 | 1260 | CCc1cc2ccc(C(C)(C#N)Cc3cccc(COC)n3)cc2[nH]c1=O (centres unmarked) [Compound 216]
38 | 398 | CCc1cc2ccc(C(C)(C#N)Cc3cccc(OCCOC)n3)cc2[nH]c1=O (centres unmarked) [Compound 219]
39 | 251 | CCc1cc2ccc(C(C)(C#N)Cc3cccc(CN)n3)cc2[nH]c1=O (centres unmarked) [Compound 221]
40 | 631 | CCc1cc2ccc(C(C)(C#N)Cc3cccc(OCCO)c3)cc2[nH]c1=O (centres unmarked) [Compound 262]
41 | 2510 | CCc1cc2ccc(C(C)(C#N)CCOc3cccc(C(F)(F)F)c3)cc2[nH]c1=O (centres unmarked) [Compound 274]
42 | 316 | CCc1cc2ccc(C(C)(C#N)Cc3cccc(CN)c3)cc2[nH]c1=O (centres unmarked) [Compound 290]
43 | 126 | CCc1cc2ccc(C(C)(C#N)Cc3cccc(/C=C/S(C)(=O)=O)c3)cc2[nH]c1=O (centres unmarked) [Compound 292]
44 | 1000 | CCc1c(Cl)c2ccc(C(C)(C#N)Cc3cccc(C#N)c3)cc2[nH]c1=O (centres unmarked) [Compound 293]

Row | IC50 [nM] | SMILES
45 | 158 | CCc1cc2cc(OC)c(C(C)(C#N)Cc3ccccc3)cc2[nH]c1=O (centres unmarked) [Compound 294]
46 | 1580 | CCc1cc2ccc(C(C)(C#N)Cc3cccc(C#CCOC)c3)cc2[nH]c1=O (centres unmarked) [Compound 297]
47 | 1580 | CCc1cc2ccc(C(C)(C#N)Cc3cccc(C#CCN(C)C)c3)cc2[nH]c1=O (centres unmarked) [Compound 298]
48 | 79.4 | CCc1cc2ccc(C(C)(C#N)CNCc3cccc(C#N)c3)cc2[nH]c1=O (centres unmarked) [Compound 301]
49 | 126 | CCc1cc2ccc(C(C)(C#N)Cc3cnc(Cl)nc3Cl)cc2[nH]c1=O (centres unmarked) [Compound 306]
50 | 3160 | COc1cc(OC)nc(CC(C)(C#N)c2ccc3cc(C)c(=O)[nH]c3c2)n1 (centres unmarked) [Compound 308]
51 | 2000 | CCOc1cc(OCC)nc(CC(C)(C#N)c2ccc3cc(CC)c(=O)[nH]c3c2)n1 (centres unmarked) [Compound 309]
52 | 251 | CCc1cc2ccc(C(C)(C#N)Cc3cccc(Cl)n3)cc2[nH]c1=O (centres unmarked) [Compound 310]
53 | 1260 | CCc1cc2ccc(C(C)(C#N)Cc3ncc(C)c(OC)c3C)cc2[nH]c1=O (centres unmarked) [Compound 311]
54 | 631 | CCc1cc2ccc(C(C)(C#N)Cc3ccc(C)nc3)cc2[nH]c1=O (centres unmarked) [Compound 327]
55 | 316 | CCc1cc2ccc(C(C)(C#N)Cc3cccc(C#N)n3)cc2[nH]c1=O (centres unmarked) [Compound 329]
56 | 501 | CCCn1ccnc1CC(C)(C#N)c1ccc2cc(CC)c(=O)[nH]c2c1 (centres unmarked) [Compound 335]
57 | 100 | CCc1cc2ccc(C(C)(C#N)Cc3ccc4ccccc4n3)cc2[nH]c1=O (centres unmarked) [Compound 336]
58 | 631 | CCc1cc2ccc(C(C)(C#N)Cc3nccn3CC)cc2[nH]c1=O (centres unmarked) [Compound 337]
59 | 501 | CCc1cc2ccc(C(C)(C#N)Cc3nc4ccccc4n3C)cc2[nH]c1=O (centres unmarked) [Compound 338]
60 | 398 | CCc1cc2ccc(C(C)(C#N)Cc3cccc(C)n3)cc2[nH]c1=O (centres unmarked) [Compound 343]
61 | 316 | CCc1cc2ccc(C(C)(C#N)Cc3cccc(Br)n3)cc2[nH]c1=O (centres unmarked) [Compound 344]
62 | 501 | CCc1cc2ccc(C(C)(C#N)Cc3cccc(CO)n3)cc2[nH]c1=O (centres unmarked) [Compound 345]
63 | 631 | CCc1cc2ccc(C(C)(C#N)Cc3ccc(OC)nc3)cc2[nH]c1=O (centres unmarked) [Compound 352]
64 | 200 | CCc1cc2ccc(C(C)(C#N)Cc3cccc(OC)n3)cc2[nH]c1=O (centres unmarked) [Compound 353]

Row | SMILES | IC50 [nM]
65 | CCc1cc2ccc(C(C)(C#N)Cc3cccc(C#C[Si](C)(C)C)n3)cc2[nH]c1=O (centres unmarked) [Compound 210] | 3980

From US8778966B2, “Quinolinone derivatives as PARP and tank inhibitors” (Janssen Pharmaceutica, NV, priority 2007, dated 2014)
